Measurements: US20240285661A1, “Inhibitor of Invasion of Virus to Cell” (TOYO SUGAR REFINING CO., LTD., priority 2021, published 2024)

Experiments:
pseudo SARS-CoV-2 [1] = test: microbe, parasite or virus in culture; type: cell-based; details: Severe acute respiratory syndrome coronavirus 2, Caco-2 cells, read-out: Inhibition rate of invasion to cell (%)
pseudo SARS-CoV-2 [2] = test: microbe, parasite or virus in culture; type: cell-based; details: Severe acute respiratory syndrome coronavirus 2, A549, concentration 20 nM, read-out: Inhibition rate of invasion to cell (%)

For `N=C(N)c1ccc2cc(OC(=O)c3ccc(N=C(N)N)cc3)ccc2c1` [Nafamostat], the inhibition at 0.00016 µM (pseudo SARS-CoV-2 [1]; concentration 0.16 nM) was 40.4%, the inhibition at 0.0008 µM (pseudo SARS-CoV-2 [1]; concentration 0.80 nM) was 48.9% and the inhibition at 0.1 µM (pseudo SARS-CoV-2 [1]; concentration 100 nM) was 76.1%. For the same molecule, the inhibition at 0.02 µM (pseudo SARS-CoV-2 [2]) was 49%.
